{"source": "paper PMC6856039", "about": "(Investigational New Drugs, 2019)", "tested_on": "Japanese patients with advanced EGFR mutation-positive NSCLC", "assay": "Phase I study: dose-limiting toxicities, adverse drug reactions, tolerability", "assay_type": "in vivo, human", "settings": "for patients who presented a DLT: Cycle 1 of dose escalation phase; for maximum tolerated dose (MTD): dose escalation phase", "method": "This was an open-label, non-randomized, dose escalation phase I study conducted between December 14, 2015 and July 7, 2016 at 12 centers in Japan. The study was conducted in three phases (dose escalation phase, expansion phase, and extension phase), and the design is shown in Supplementary Fig. 1 (Online Resource 1). […] In patients who received the BID regimen, the administration interval was ≥10 h.\nThe first phase was the dose escalation phase conducted according to a 3 + 3 design, with a minimum of three patients treated at each dose level. […] The dosing rationale was derived from a 4-weeks repeated oral-dose toxicology study in monkeys. […] If none of the initial three patients treated within a dose level experienced a dose-limiting toxicity (DLT) during Cycle 1, the dose was escalated to the next level. […] If none of the three additional patients experienced DLTs after all of them completed Cycle 1, the dose was escalated to the next level. If at least one of the additional three patients developed a DLT, then the dose escalation was stopped and at least six evaluable patients were enrolled at the previous dose level to establish the maximum tolerated dose (MTD). The maximum dose level was defined as Dose Level 9 (150 mg/day). Based on safety and PK results, the dosing schedule could be changed to a BID regimen.\nAEs were evaluated and graded according to the National Cancer Institute Common Terminology Criteria for Adverse Events Version 4.03. DLTs were also evaluated and defined as hematologic toxicity (Grade 4 neutropenia lasting >7 days, Grade 4 thrombocytopenia or Grade 3 thrombocytopenia associated with bleeding and requiring blood transfusion, or febrile neutropenia) or non-hematologic toxicity (Grade ≥3 nausea/vomiting uncontrolled by aggressive antiemetic treatment, Grade ≥3 diarrhea lasting >48 h and unresponsive to treatment, Grade ≥3 aspartate aminotransferase/alanine aminotransferase lasting >7 days, corneal disorder worsening by ≥1 grade, or Grade ≥3 other non-hematological toxicity).", "note": "“Also recorded” adds a separate entry of the source."}
{"molecule": "C=CC(=O)N[C@H]1CCc2c(-c3cnc4ccccc4c3)c3c(N)ncnc3n2C1", "note": "[TAS-121]", "values": [{"measurement": "Urticaria, ≥G3", "setting": "12 mg/day BID, N = 5", "value": 0, "unit": "n"}, {"measurement": "Venous thromboembolism, any grade", "setting": "12 mg/day BID, N = 5", "value": 0, "unit": "n"}, {"measurement": "Venous thromboembolism, ≥G3", "setting": "12 mg/day BID, N = 5", "value": 0, "unit": "n"}, {"measurement": "Vomiting, ≥G3", "setting": "12 mg/day BID, N = 5", "value": 0, "unit": "n"}, {"measurement": "WBC decreased, any grade", "setting": "12 mg/day BID, N = 5", "value": 0, "unit": "n"}, {"measurement": "WBC decreased, ≥G3", "setting": "12 mg/day BID, N = 5", "value": 0, "unit": "n"}, {"measurement": "ALT increased, ≥G3", "setting": "12 mg/day QD, N = 3", "value": 0, "unit": "n"}, {"measurement": "AST increased, ≥G3", "setting": "12 mg/day QD, N = 3", "value": 0, "unit": "n"}, {"measurement": "Decreased appetite, ≥G3", "setting": "12 mg/day QD, N = 3", "value": 0, "unit": "n"}, {"measurement": "Diarrhea, ≥G3", "setting": "12 mg/day QD, N = 3", "value": 0, "unit": "n"}, {"measurement": "Dry skin, ≥G3", "setting": "12 mg/day QD, N = 3", "value": 0, "unit": "n"}, {"measurement": "Embolic and thrombotic events, any grade", "setting": "12 mg/day QD, N = 3", "value": 2, "unit": "n"}, {"measurement": "Hemoglobin decreased, any grade", "setting": "12 mg/day QD, N = 3", "value": 0, "unit": "n"}, {"measurement": "Hemoglobin decreased, ≥G3", "setting": "12 mg/day QD, N = 3", "value": 0, "unit": "n"}, {"measurement": "Hypoalbuminemia, any grade", "setting": "12 mg/day QD, N = 3", "value": 0, "unit": "n"}, {"measurement": "Hypoalbuminemia, ≥G3", "setting": "12 mg/day QD, N = 3", "value": 0, "unit": "n"}, {"measurement": "Interstitial lung disease, any grade", "setting": "12 mg/day QD, N = 3", "value": 0, "unit": "n"}, {"measurement": "Interstitial lung disease, ≥G3", "setting": "12 mg/day QD, N = 3", "value": 0, "unit": "n"}, {"measurement": "Malaise, ≥G3", "setting": "12 mg/day QD, N = 3", "value": 0, "unit": "n"}, {"measurement": "Nausea, any grade", "setting": "12 mg/day QD, N = 3", "value": 2, "unit": "n"}, {"measurement": "Nausea, ≥G3", "setting": "12 mg/day QD, N = 3", "value": 0, "unit": "n"}, {"measurement": "Other embolic and thrombotic events, any grade", "setting": "12 mg/day QD, N = 3", "value": 2, "unit": "n"}, {"measurement": "Other embolic and thrombotic events, ≥G3", "setting": "12 mg/day QD, N = 3", "value": 0, "unit": "n"}, {"measurement": "Platelet count decreased, any grade", "setting": "12 mg/day QD, N = 3", "value": 2, "unit": "n"}, {"measurement": "Pruritus, any grade", "setting": "12 mg/day QD, N = 3", "value": 0, "unit": "n"}, {"measurement": "Pruritus, ≥G3", "setting": "12 mg/day QD, N = 3", "value": 0, "unit": "n"}, {"measurement": "Pyrexia, ≥G3", "setting": "12 mg/day QD, N = 3", "value": 0, "unit": "n"}, {"measurement": "Rash maculo-papular, any grade", "setting": "12 mg/day QD, N = 3", "value": 1, "unit": "n"}, {"measurement": "Rash maculo-papular, ≥G3", "setting": "12 mg/day QD, N = 3", "value": 0, "unit": "n"}, {"measurement": "Rash, any grade", "setting": "12 mg/day QD, N = 3", "value": 0, "unit": "n"}, {"measurement": "Rash, ≥G3", "setting": "12 mg/day QD, N = 3", "value": 0, "unit": "n"}, {"measurement": "Stomatitis, ≥G3", "setting": "12 mg/day QD, N = 3", "value": 0, "unit": "n"}, {"measurement": "Urticaria, any grade", "setting": "12 mg/day QD, N = 3", "value": 2, "unit": "n"}, {"measurement": "Urticaria, ≥G3", "setting": "12 mg/day QD, N = 3", "value": 1, "unit": "n"}, {"measurement": "Vomiting, ≥G3", "setting": "12 mg/day QD, N = 3", "value": 0, "unit": "n"}, {"measurement": "WBC decreased, any grade", "setting": "12 mg/day QD, N = 3", "value": 0, "unit": "n"}, {"measurement": "WBC decreased, ≥G3", "setting": "12 mg/day QD, N = 3", "value": 0, "unit": "n"}, {"measurement": "ALT increased, any grade", "setting": "16 mg/day QD, N = 3", "value": 0, "unit": "n"}, {"measurement": "ALT increased, ≥G3", "setting": "16 mg/day QD, N = 3", "value": 0, "unit": "n"}, {"measurement": "AST increased, any grade", "setting": "16 mg/day QD, N = 3", "value": 0, "unit": "n"}, {"measurement": "AST increased, ≥G3", "setting": "16 mg/day QD, N = 3", "value": 0, "unit": "n"}, {"measurement": "Decreased appetite, ≥G3", "setting": "16 mg/day QD, N = 3", "value": 0, "unit": "n"}, {"measurement": "Diarrhea, any grade", "setting": "16 mg/day QD, N = 3", "value": 2, "unit": "n"}, {"measurement": "Diarrhea, ≥G3", "setting": "16 mg/day QD, N = 3", "value": 1, "unit": "n"}, {"measurement": "Dry skin, any grade", "setting": "16 mg/day QD, N = 3", "value": 0, "unit": "n"}, {"measurement": "Dry skin, ≥G3", "setting": "16 mg/day QD, N = 3", "value": 0, "unit": "n"}, {"measurement": "Embolic and thrombotic events, any grade", "setting": "16 mg/day QD, N = 3", "value": 1, "unit": "n"}, {"measurement": "Hemoglobin decreased, any grade", "setting": "16 mg/day QD, N = 3", "value": 1, "unit": "n"}, {"measurement": "Hemoglobin decreased, ≥G3", "setting": "16 mg/day QD, N = 3", "value": 0, "unit": "n"}, {"measurement": "Hypoalbuminemia, any grade", "setting": "16 mg/day QD, N = 3", "value": 0, "unit": "n"}, {"measurement": "Hypoalbuminemia, ≥G3", "setting": "16 mg/day QD, N = 3", "value": 0, "unit": "n"}, {"measurement": "Interstitial lung disease, ≥G3", "setting": "16 mg/day QD, N = 3", "value": 1, "unit": "n"}, {"measurement": "Malaise, any grade", "setting": "16 mg/day QD, N = 3", "value": 0, "unit": "n"}, {"measurement": "Malaise, ≥G3", "setting": "16 mg/day QD, N = 3", "value": 0, "unit": "n"}, {"measurement": "Nausea, any grade", "setting": "16 mg/day QD, N = 3", "value": 1, "unit": "n"}, {"measurement": "Nausea, ≥G3", "setting": "16 mg/day QD, N = 3", "value": 0, "unit": "n"}, {"measurement": "Other embolic and thrombotic events, any grade", "setting": "16 mg/day QD, N = 3", "value": 0, "unit": "n"}, {"measurement": "Other embolic and thrombotic events, ≥G3", "setting": "16 mg/day QD, N = 3", "value": 0, "unit": "n"}, {"measurement": "Pruritus, ≥G3", "setting": "16 mg/day QD, N = 3", "value": 0, "unit": "n"}, {"measurement": "Pyrexia, ≥G3", "setting": "16 mg/day QD, N = 3", "value": 0, "unit": "n"}, {"measurement": "Rash maculo-papular, any grade", "setting": "16 mg/day QD, N = 3", "value": 1, "unit": "n"}, {"measurement": "Rash maculo-papular, ≥G3", "setting": "16 mg/day QD, N = 3", "value": 0, "unit": "n"}, {"measurement": "Rash, any grade", "setting": "16 mg/day QD, N = 3", "value": 0, "unit": "n"}, {"measurement": "Rash, ≥G3", "setting": "16 mg/day QD, N = 3", "value": 0, "unit": "n"}, {"measurement": "Stomatitis, ≥G3", "setting": "16 mg/day QD, N = 3", "value": 0, "unit": "n"}, {"measurement": "Urticaria, any grade", "setting": "16 mg/day QD, N = 3", "value": 1, "unit": "n"}, {"measurement": "Urticaria, ≥G3", "setting": "16 mg/day QD, N = 3", "value": 1, "unit": "n"}, {"measurement": "Vomiting, ≥G3", "setting": "16 mg/day QD, N = 3", "value": 0, "unit": "n"}, {"measurement": "WBC decreased, any grade", "setting": "16 mg/day QD, N = 3", "value": 2, "unit": "n"}, {"measurement": "WBC decreased, ≥G3", "setting": "16 mg/day QD, N = 3", "value": 0, "unit": "n"}, {"measurement": "DLT", "setting": "BID 8 mg/day", "value": "Interstitial lung disease^a"}, {"measurement": "Number of patients who experienced a DLT", "setting": "BID 8 mg/day, 6 DLT evaluable patients", "value": 1}, {"measurement": "DLT", "setting": "BID 12 mg/day", "value": "Interstitial lung disease^a; also recorded: Platelet count decreased; also recorded: Left ventricular failure"}, {"measurement": "Number of patients who experienced a DLT", "setting": "BID 12 mg/day, 5 DLT evaluable patients", "value": 2}, {"measurement": "patients who presented a DLT", "setting": "BID regimen", "value": "three"}, {"measurement": "maximum tolerated dose (MTD)", "setting": "BID regimen", "value": 8, "unit": "mg/day"}, {"measurement": "Number of patients who experienced a DLT", "setting": "QD 4 mg/day, 3 DLT evaluable patients", "value": 0}, {"measurement": "Number of patients who experienced a DLT", "setting": "QD 8 mg/day, 6 DLT evaluable patients", "value": 0}, {"measurement": "DLT", "setting": "QD 10 mg/day", "value": "Drug-induced liver injury"}, {"measurement": "Number of patients who experienced a DLT", "setting": "QD 10 mg/day, 6 DLT evaluable patients", "value": 1}, {"measurement": "DLT", "setting": "QD 12 mg/day", "value": "Platelet count decreased; also recorded: Urticaria"}, {"measurement": "Number of patients who experienced a DLT", "setting": "QD 12 mg/day, 3 DLT evaluable patients", "value": 2}, {"measurement": "DLT", "setting": "QD 16 mg/day", "value": "Urticaria; also recorded: Interstitial lung disease^a"}, {"measurement": "Number of patients who experienced a DLT", "setting": "QD 16 mg/day, 3 DLT evaluable patients", "value": 2}, {"measurement": "patients who presented a DLT", "setting": "QD regimen", "value": "Five"}, {"measurement": "maximum tolerated dose (MTD)", "setting": "QD regimen", "value": 10, "unit": "mg/day"}, {"measurement": "AST increased, ≥G3", "setting": "Total, N = 134", "value": 0, "unit": "n"}, {"measurement": "Decreased appetite, ≥G3", "setting": "Total, N = 134", "value": 0, "unit": "n"}, {"measurement": "Dry skin, ≥G3", "setting": "Total, N = 134", "value": 0, "unit": "n"}, {"measurement": "Hypoalbuminemia, ≥G3", "setting": "Total, N = 134", "value": 0, "unit": "n"}, {"measurement": "Malaise, ≥G3", "setting": "Total, N = 134", "value": 0, "unit": "n"}, {"measurement": "Nausea, ≥G3", "setting": "Total, N = 134", "value": 0, "unit": "n"}, {"measurement": "Pruritus, ≥G3", "setting": "Total, N = 134", "value": 0, "unit": "n"}, {"measurement": "Stomatitis, ≥G3", "setting": "Total, N = 134", "value": 0, "unit": "n"}, {"measurement": "WBC decreased, ≥G3", "setting": "Total, N = 134", "value": 0, "unit": "n"}, {"measurement": "treatment-related deaths", "setting": "all patients, during the study", "value": "No treatment-related deaths"}]}
